Ends that are not written are not given here. Peptide text beside a SMILES is read from it.
Legend:
[1] = tested on: serum IgE of cryptomeria pollinosis patients; assay: Enzyme antibody assay: binding of solid phase Cry j II overlapping peptides to patients' serum IgE; set-up: species or system human
Description: Presently, however, the C-terminal amino acids are unknown. Therefore, overlapping peptides were synthesized on a solid phase using an Fmoc-amino acid and multipin system (manufactured by Chiron) so as to cover all the proteins consisting of 460 amino acid residues (Sequence No. 1) other than the N-terminal moiety. The first peptide comprises the first through ninth amino acids in the N-terminal moiety of a Cry j II protein. The second peptide comprises the third through eleventh amino acids in the N-terminal moiety.
Subsequently, using a washing solution of 0.05% Tween 20/0.15 M NaCl/Tris-HCl (pH 7.5), synthesized solid phase peptides were washed three times to remove the patient's serum. Using a 1:9 diluted Block-ace (product of Dainippon Seiyaku K.K.), 100 µl of galactosidase-labelled anti-human IgE antibodies (Pharmacia) were diluted to 40-fold. The diluted solution was added to a 96-well plate, and then each synthesized solid phase peptide was also added. Reaction was allowed to proceed overnight at room temperature. The synthesized solid phase peptide was washed with the same washing solution five times. Thereafter, 200 µl of a solution of 0.1 mM 4-methylumbelliferyl-β-D-galactopyranoside in 0.1% bovine serum albumin/0.1 M NaCl/1 mM MgCl₂/0.1% sodium azide/10 mM phosphate buffer (pH 7.0) were added to a 96-well black plate (manufactured by Dainippon Seiyaku K.K.). Subsequently, the synthesized solid phase peptide was added and reacted for 2 hours at 37°C.

[2] = tested on: serum IgE from 15 patients suffering from mite rhinallergosis; assay: Enzyme antibody assay: binding of solid phase Der p II overlapping peptides to patients' serum IgE; set-up: species or system human; details: serum from each of 15 patients
Description: The complete primary structure of the amino acid sequence of a Der p II protein was determined after cDNA was isolated therefrom by Chua et al. (Int. Arch. Allergy Appl. Immunol. 91: 118-123, 1990). Based on the amino acid sequence, peptides were synthesized on a solid phase using a multipin system (manufactured by Chiron) and coupling reagents, Fmoc-amino acid and DCC (dicyclohexyl carbodiimide) (Geysen, H.M. et al., Proc. Natl. Acad. Sci. USA. 81:3998-4002, 1984). Sixty-one kinds of peptides were synthesized, the first peptide comprising the first through ninth amino acids of the N-terminal of Der p II, the second peptide comprising the third through eleventh amino acids of the N-terminal, and the third through 61st peptides being prepared in an analogous manner.
The RAST (radio-allergosorbent test, Pharmacia) values as determined using antigens from two mite species, Dermatophagoides pteronyssinus (Der p) and Dermatophagoides farina (D f), were class 4. Each of the above-mentioned 61 synthesized peptides and 100 µl of each patient's serum were placed in a 96-well plate and reacted overnight at room temperature. Synthesized peptides in a solid phase were washed three times to remove the patient's serum using a washing solution of 0.05% Tween 20/0.15 M NaCl/Tris-HCl (pH 7.5). 100 µl of galactosidase-labelled anti-human IgE antibodies (Pharmacia) were diluted to 40-fold using a 1:9 diluted Block-ace (product of Dainippon Seiyaku K.K.). The diluted solution was added to a 96-well plate, each synthesized solid phase peptide was also added, and reaction, was allowed to proceed overnight at room temperature. The synthesized solid phase peptide was washed with the same washing solution five times. Thereafter, to a 96-well black plate (manufactured by Dainippon Seiyaku K.K.), were added 200 µl of a solution of 0.1 mM 4-methylumbelliferyl-β-D-galactopyranoside in 0.1% bovine serum albumin/0.1 M NaCl/1 mM MgCl₂/0.1% sodium azide/10 mM phosphate buffer (pH 7.0). Subsequently, the synthesized solid phase peptide was added and reacted for 2 hours at 37°C. After completion of reaction, 100 µl of a reaction terminating solution (0.1 M glycin/NaOH, pH 10.3) were added to each well, and absorbance was measured using a fluorospectrophotometer for 96-well plates (Manufactured by Flow). This reaction was studied for each of 15 patients.

basophils of a patient = assay: Histamine release inhibition test with peptide D, blood of egg allergy patients; assay type: cell-based, human
Description: The histamine release inhibition test was performed using a histamine kit "Eiken" manufactured by Eiken Kagaku K.K. Briefly, heparinized peripheral blood was collected from each patient, and the blood was diluted to a 1:1 ratio using a buffer for release tests. Equivalent amounts of a diluted peptide D (which had been diluted to double the density of an inhibitory concentration using a buffer for release tests) and a diluted blood from a patient (which had been diluted to a 1:1 ratio) were mixed and allowed to react overnight at 4°C. Subsequently, fifty µl of peptide B or OVA diluted with a buffer for release was mixed with 100 µl of the patient's blood with which peptide D was reacted. […] After the histamine tubes were incubated for 16 to 24 hours, the solution was drawn off using an aspirator, and measured using a gamma scintillation counter. The amount of total histamine was determined using a supernatant sample obtained by adding 1 ml of purified water to 50 µl of whole blood, freezing and thawing, then centrifugally separating. […] The ratio of the difference with respect to the total amount of histamine was calculated and taken as a histamine release ratio. Inhibition ratio (%) was calculated by the following equation: %Inhibition = {1-(histamine release ratio in the presence of an inhibitory peptide)/(histamine release ratio in the absence of an inhibitory peptide)} x 100 [formula] […]

C[C@H](NC(=O)[C@H](CO)NC(=O)[C@H](C)NC(=O)[C@H](CO)NC(=O)[C@@H](NC(=O)[C@@H](N)CS)[C@@H](C)O)C(=O)N[C@@H](CS)C(=O)N[C@@H](CCC(N)=O)C(=O)N[C@@H](CC(N)=O)C(=O)O [Cys-Thr-Ser-Ala-Ser-Ala-Cys-Gln-Asn] (H-CTSASACQN-OH)
reaction with serum IgE of cryptomeria pollinosis patients [1]: reacted serum IgE of cryptomeria pollinosis patients

C[C@@H](O)[C@H](NC(=O)[C@H](CS)NC(=O)[C@H](CC(N)=O)NC(=O)[C@@H]1CCCN1)C(=O)N[C@@H](CC(N)=O)C(=O)N[C@@H](CCCCN)C(=O)N[C@@H](CS)C(=O)N[C@@H](Cc1c[nH]cn1)C(=O)NCC(=O)O [Pro-Asn-Cys-Thr-Asn-Lys-Cys-His-Gly] (H-PNCTNKCHG-OH)
reaction with serum IgE of cryptomeria pollinosis patients [1]: reacted serum IgE of cryptomeria pollinosis patients

ANQNTKTAK [synthesized peptide No. 22]
binding reactions with IgE antibodies [2]: exhibited binding reactions with IgE antibodies

EFRADHPFLF [peptide D]
suppression ratio of histamine release caused by untreated OVA (basophils of a patient; peptide D 1.4 mg/ml): 93%
suppression of histamine release caused by stimulant peptide B (basophils of a patient; peptide D at a concentration of not less than 1.4 mg/ml): at least 85%

FQLEAVFEA [synthesized peptide No. 18]
binding reactions with IgE antibodies [2]: exhibited binding reactions with IgE antibodies

IATHAKIRD [synthesized peptide No. 61]
binding reactions with IgE antibodies [2]: exhibited binding reactions with IgE antibodies

KCPLVKGQQ [synthesized peptide No. 39]
binding reactions with IgE antibodies [2]: exhibited binding reactions with IgE antibodies

KIEIKASID [synthesized peptide No. 26]
binding reactions with IgE antibodies [2]: exhibited binding reactions with IgE antibodies

KWVNGREIC [Lys-Trp-Val-Asn-Gly-Arg-Glu-Ile-Cys]
reaction with serum IgE of cryptomeria pollinosis patients [1]: reacted serum IgE of cryptomeria pollinosis patients

NLFFNGPCQ [Asn-Leu-Phe-Phe-Asn-Gly-Pro-Cys-Gln]
reaction with serum IgE of cryptomeria pollinosis patients [1]: reacted serum IgE of cryptomeria pollinosis patients

NVPKIAPKS [synthesized peptide No. 47]
binding reactions with IgE antibodies [2]: exhibited binding reactions with IgE antibodies

PKSENVVVT [synthesized peptide No. 50]
binding reactions with IgE antibodies [2]: exhibited binding reactions with IgE antibodies

QCKWVNGRE
reaction with serum IgE of cryptomeria pollinosis patients [1]: reacted serum IgE of cryptomeria pollinosis patients

SASACQNQR [Ser-Ala-Ser-Ala-Cys-Gln-Asn-Gln-Arg]
reaction with serum IgE of cryptomeria pollinosis patients [1]: reacted serum IgE of cryptomeria pollinosis patients

SENVVVTVK [synthesized peptide No. 51]
binding reactions with IgE antibodies [2]: exhibited binding reactions with IgE antibodies

SIDGLEVDV [synthesized peptide No. 29]
binding reactions with IgE antibodies [2]: exhibited binding reactions with IgE antibodies

VVTVKVMGD [synthesized peptide No. 53]
binding reactions with IgE antibodies [2]: exhibited binding reactions with IgE antibodies

— patent EP0714662A1, “ANTIALLERGIC AGENT” (MEIJI MILK PRODUCTS COMPANY LIMITED, priority 1993, dated 1995)
